This is an account of results in paper PMC12595434, “Development of retinoid nuclear receptor pathway antagonists through targeting aldehyde dehydrogenase 1A3” (iScience, 2025).

The target in one data set is op-mu (Homo sapiens, UniProt P35372). The experiment in a line: Off-target profiling panel. The class given is binding. The settings on record: read-out: Inhibition by MBE1 at 10 μM (%).
The test system of the next data set is GABAA. The experiment in a line: Off-target profiling panel.
For another data set, the target named is Eta antagonist (Homo sapiens, UniProt P25101). The experiment in a line: Off-target profiling panel. It is filed as cell-based. The settings on record: read-out: Inhibition by MBE1 at 10 μM (%).
The test system of another data set is MDA-MB-468 cells. The settings on record: MDA-MB-468, 24 hour incubation, highest tested dose 10 μM.
For a further data set, the target named is 5HT2B (Homo sapiens, UniProt P41595). Description: Off-target profiling panel. Particulars: read-out: Inhibition by MBE1 at 10 μM (%). It is filed as binding.
For a further data set, the target named is MAO-A (Homo sapiens, UniProt P21397). The experiment in a line: Off-target profiling panel. Particulars: read-out: Inhibition by MBE1 at 10 μM (%). It is filed as biochemical.
The next data set concerns the target 5HT1a (Homo sapiens, UniProt P08908). The experiment in a line: Off-target profiling panel. It is filed as binding. The settings on record: read-out: Inhibition by MBE1 at 10 μM (%).
In a further data set the target is 5HTT (Homo sapiens, UniProt P31645). The experiment in a line: Off-target profiling panel. The class given is binding. The settings on record: read-out: Inhibition by MBE1 at 10 μM (%).
The next data set deals with V1A (Homo sapiens, UniProt P37288). The experiment in a line: Off-target profiling panel. It is filed as binding. Particulars: read-out: Inhibition by MBE1 at 10 μM (%).
The next data set addresses NET (Homo sapiens, UniProt P23975). The experiment in a line: Off-target profiling panel. The class given is binding. Particulars: read-out: Inhibition by MBE1 at 10 μM (%).
Another data set deals with ACHE (Homo sapiens, UniProt P22303). The experiment in a line: Off-target profiling panel. It is filed as biochemical. The settings on record: read-out: Inhibition by MBE1 at 10 μM (%).
The next data set concerns the target CB1 (Homo sapiens, UniProt P21554). Description: Off-target profiling panel. The class given is binding. The settings on record: read-out: Inhibition by MBE1 at 10 μM (%).
The target of another data set is H1 (Homo sapiens, UniProt P35367). Description: Off-target profiling panel. It is filed as binding. The settings on record: read-out: Inhibition by MBE1 at 10 μM (%).
Another data set concerns the target T1, ALDH1A3 (Homo sapiens, UniProt P47895).
T1 sequence (P47895 1-512): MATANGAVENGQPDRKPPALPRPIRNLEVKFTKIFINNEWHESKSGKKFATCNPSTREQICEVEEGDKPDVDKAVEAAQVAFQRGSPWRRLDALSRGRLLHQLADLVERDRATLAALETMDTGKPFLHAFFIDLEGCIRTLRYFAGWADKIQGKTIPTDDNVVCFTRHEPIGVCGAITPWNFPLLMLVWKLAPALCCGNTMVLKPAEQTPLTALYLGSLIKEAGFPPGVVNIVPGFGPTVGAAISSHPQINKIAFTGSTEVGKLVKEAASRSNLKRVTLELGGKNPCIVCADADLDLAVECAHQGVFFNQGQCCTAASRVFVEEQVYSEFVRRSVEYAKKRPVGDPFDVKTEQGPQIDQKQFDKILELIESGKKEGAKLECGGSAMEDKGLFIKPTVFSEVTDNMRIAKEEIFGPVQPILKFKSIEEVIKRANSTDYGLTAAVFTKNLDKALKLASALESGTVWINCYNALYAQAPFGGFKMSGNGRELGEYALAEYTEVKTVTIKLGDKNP
Description: Thermal proteome profiling (TPP) in A375 cells. The class given is cell-based. Also on record: endogenous in cells; host or cells: A375 cells. The settings on record: 100 nM and 1 μM MBE1, A375 cells.

A further data set deals with hNav1.5 (Homo sapiens, UniProt Q14524). The experiment in a line: Off-target profiling panel. The class given is cell-based. The settings on record: read-out: Inhibition by MBE1 at 10 μM (%).
A further data set deals with op-delta (Homo sapiens, UniProt P41143). The experiment in a line: Off-target profiling panel. It is filed as binding. Particulars: read-out: Inhibition by MBE1 at 10 μM (%).
The next data set deals with ADORA2A (Homo sapiens, UniProt P29274). Description: Off-target profiling panel. It is filed as binding. Particulars: read-out: Inhibition by MBE1 at 10 μM (%).
Another data set deals with M3 (Homo sapiens, UniProt P20309). The experiment in a line: Off-target profiling panel. The class given is binding. Particulars: read-out: Inhibition by MBE1 at 10 μM (%).
Another data set has as its target M2 (Homo sapiens, UniProt P08172). Description: Off-target profiling panel. The class given is binding. Particulars: read-out: Inhibition by MBE1 at 10 μM (%).
The next data set relates to NMDA. Description: Off-target profiling panel. Particulars: 10 μM. The class given is binding.
The subject of another data set is ALDH1A3 mRNA. Description: RT-qPCR of ALDH1A3 mRNA after treatment. It is filed as cell-based, human. The settings on record: multiple cell lines. A general note: In qPCR the cycle at which signal appears reflects the starting amount.
The next data set has as its target T2, ALDH1L1 (Homo sapiens, UniProt O75891).
T2 construct: made in house; host or cells: BL21-DE3 E. coli
The experiment in a line: Recombinant enzyme activity assay. Particulars: selectivity profiling. The class given is biochemical.

Another data set deals with T3, ALDH1L2 (Homo sapiens, UniProt Q3SY69).
T3 construct: made in house; host or cells: BL21-DE3 E. coli
Description: Recombinant enzyme activity assay. The settings on record: selectivity profiling. It is filed as biochemical.

The target of another data set is T4, ALDH3A1 (Homo sapiens, UniProt P30838).
T4 construct: made in house; host or cells: BL21-DE3 E. coli
The experiment in a line: Recombinant enzyme activity assay. The class given is biochemical. Particulars: selectivity profiling.

SMILES strings stand for the structures.

T4 sequence (P30838 whole entry): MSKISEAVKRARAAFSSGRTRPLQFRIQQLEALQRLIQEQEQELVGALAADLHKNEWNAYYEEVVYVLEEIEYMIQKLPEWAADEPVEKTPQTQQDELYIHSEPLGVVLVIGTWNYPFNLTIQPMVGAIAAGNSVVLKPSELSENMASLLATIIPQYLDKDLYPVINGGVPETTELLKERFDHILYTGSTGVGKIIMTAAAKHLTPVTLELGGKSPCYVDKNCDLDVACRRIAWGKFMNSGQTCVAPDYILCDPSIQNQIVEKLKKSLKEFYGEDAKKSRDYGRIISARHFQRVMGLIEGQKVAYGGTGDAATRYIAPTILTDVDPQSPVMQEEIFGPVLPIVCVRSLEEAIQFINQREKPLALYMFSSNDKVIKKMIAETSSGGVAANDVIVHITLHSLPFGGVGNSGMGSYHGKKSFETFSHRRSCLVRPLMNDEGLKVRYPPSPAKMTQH
Sequence of hNav1.5 (Q14524 whole entry): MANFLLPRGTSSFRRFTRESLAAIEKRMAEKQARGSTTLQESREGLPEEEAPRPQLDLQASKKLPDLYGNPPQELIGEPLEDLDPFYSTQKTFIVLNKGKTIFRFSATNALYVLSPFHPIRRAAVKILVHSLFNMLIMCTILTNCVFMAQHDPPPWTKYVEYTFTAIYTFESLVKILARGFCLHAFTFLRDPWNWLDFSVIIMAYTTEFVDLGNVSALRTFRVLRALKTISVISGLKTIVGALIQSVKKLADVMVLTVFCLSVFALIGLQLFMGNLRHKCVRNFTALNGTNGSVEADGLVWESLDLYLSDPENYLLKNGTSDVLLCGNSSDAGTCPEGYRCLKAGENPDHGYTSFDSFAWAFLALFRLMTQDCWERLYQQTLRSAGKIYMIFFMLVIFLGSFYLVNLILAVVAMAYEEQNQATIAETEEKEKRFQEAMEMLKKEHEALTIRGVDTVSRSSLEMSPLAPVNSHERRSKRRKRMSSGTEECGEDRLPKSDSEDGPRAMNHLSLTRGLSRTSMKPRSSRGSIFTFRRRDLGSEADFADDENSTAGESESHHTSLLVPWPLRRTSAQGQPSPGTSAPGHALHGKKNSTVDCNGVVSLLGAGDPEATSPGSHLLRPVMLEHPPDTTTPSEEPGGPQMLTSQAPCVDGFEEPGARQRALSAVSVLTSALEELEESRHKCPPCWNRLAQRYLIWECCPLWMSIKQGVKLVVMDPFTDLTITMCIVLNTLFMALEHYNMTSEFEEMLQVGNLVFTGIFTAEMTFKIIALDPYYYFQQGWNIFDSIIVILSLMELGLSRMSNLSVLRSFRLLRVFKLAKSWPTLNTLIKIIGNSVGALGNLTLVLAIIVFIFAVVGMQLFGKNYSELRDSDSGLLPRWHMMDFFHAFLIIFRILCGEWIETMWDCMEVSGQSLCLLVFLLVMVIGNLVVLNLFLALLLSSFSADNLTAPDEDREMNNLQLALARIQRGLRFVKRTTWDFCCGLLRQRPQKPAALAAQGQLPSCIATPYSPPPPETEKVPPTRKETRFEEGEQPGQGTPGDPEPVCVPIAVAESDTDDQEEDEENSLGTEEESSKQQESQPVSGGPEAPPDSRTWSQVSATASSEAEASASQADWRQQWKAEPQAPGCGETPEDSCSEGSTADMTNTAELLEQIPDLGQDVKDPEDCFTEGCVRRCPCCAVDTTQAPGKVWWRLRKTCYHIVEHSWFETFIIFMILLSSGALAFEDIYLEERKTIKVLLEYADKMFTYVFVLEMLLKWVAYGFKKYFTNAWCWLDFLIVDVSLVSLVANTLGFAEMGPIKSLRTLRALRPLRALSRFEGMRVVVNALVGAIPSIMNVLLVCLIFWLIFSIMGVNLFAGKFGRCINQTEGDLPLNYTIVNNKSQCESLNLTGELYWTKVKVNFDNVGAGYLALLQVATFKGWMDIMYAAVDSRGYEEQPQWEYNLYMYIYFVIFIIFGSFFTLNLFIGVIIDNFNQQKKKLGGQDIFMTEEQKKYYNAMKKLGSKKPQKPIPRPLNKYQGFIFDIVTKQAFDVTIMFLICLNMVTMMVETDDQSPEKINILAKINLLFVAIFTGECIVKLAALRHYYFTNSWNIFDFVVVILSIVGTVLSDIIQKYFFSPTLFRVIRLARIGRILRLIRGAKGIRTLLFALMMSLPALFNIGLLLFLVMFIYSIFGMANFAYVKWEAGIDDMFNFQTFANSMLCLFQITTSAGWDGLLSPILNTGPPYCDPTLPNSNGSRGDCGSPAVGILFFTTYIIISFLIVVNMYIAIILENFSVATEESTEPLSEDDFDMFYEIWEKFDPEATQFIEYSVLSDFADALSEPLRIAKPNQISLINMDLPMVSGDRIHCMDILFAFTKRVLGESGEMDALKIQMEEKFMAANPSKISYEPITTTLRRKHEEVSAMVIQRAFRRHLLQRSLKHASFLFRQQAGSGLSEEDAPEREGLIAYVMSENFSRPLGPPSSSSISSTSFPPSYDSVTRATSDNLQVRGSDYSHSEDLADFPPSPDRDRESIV
Sequence of op-delta (P41143 whole entry): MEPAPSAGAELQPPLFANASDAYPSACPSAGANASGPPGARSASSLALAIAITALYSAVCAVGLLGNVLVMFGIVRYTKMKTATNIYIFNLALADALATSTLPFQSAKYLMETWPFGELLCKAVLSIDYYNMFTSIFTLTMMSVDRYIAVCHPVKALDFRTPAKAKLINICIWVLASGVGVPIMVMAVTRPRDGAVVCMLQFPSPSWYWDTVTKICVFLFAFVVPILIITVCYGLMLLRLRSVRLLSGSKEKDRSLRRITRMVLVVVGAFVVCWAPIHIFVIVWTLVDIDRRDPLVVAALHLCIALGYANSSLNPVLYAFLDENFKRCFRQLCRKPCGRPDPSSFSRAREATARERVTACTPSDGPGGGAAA
Sequence of ACHE (P22303 32-614): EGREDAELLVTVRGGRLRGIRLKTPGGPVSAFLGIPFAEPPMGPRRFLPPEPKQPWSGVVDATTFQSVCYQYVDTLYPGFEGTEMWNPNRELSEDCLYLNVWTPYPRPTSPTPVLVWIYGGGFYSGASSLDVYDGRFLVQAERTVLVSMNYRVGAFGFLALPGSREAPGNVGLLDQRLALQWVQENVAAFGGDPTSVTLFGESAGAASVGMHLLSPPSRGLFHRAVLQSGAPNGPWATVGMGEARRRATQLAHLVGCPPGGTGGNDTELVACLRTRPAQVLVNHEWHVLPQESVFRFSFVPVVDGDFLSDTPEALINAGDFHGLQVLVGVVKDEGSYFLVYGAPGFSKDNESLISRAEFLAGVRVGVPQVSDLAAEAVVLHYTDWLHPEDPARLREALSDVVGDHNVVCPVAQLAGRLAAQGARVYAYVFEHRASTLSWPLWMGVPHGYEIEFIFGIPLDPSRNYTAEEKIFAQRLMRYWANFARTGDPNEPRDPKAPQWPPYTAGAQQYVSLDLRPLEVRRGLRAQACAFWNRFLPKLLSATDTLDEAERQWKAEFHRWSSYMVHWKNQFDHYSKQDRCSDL
Sequence of M3 (P20309 whole entry): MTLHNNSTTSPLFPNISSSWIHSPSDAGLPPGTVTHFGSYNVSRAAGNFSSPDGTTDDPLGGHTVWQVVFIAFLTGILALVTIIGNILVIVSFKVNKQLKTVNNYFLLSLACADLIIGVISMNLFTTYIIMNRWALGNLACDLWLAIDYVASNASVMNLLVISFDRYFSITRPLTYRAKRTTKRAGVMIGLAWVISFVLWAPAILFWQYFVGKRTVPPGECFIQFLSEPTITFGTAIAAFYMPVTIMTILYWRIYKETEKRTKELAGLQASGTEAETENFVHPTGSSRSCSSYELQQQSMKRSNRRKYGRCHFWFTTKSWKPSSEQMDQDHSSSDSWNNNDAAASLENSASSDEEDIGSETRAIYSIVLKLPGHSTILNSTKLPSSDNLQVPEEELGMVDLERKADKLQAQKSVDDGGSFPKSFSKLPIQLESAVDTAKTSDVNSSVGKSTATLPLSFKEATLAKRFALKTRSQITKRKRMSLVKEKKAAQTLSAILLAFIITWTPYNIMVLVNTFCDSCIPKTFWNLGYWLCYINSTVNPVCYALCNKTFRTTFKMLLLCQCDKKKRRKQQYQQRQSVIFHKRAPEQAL
Sequence of NET (P23975 whole entry): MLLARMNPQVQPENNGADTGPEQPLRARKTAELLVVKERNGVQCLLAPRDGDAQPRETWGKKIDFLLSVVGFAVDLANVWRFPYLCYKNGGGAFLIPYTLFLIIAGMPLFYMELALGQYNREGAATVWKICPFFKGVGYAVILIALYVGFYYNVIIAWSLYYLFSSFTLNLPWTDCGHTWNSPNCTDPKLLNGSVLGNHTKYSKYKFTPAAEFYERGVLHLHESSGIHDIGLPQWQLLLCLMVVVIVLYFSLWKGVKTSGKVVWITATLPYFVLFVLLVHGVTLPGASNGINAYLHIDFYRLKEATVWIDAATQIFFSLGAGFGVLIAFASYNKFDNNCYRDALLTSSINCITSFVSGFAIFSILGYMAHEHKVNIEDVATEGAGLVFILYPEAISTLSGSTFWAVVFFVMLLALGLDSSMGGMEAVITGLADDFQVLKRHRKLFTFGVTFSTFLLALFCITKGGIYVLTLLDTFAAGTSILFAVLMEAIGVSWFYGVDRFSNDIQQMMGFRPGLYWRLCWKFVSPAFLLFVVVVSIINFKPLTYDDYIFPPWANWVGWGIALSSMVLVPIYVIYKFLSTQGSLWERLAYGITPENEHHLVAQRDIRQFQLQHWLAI
Sequence of op-mu (P35372 whole entry): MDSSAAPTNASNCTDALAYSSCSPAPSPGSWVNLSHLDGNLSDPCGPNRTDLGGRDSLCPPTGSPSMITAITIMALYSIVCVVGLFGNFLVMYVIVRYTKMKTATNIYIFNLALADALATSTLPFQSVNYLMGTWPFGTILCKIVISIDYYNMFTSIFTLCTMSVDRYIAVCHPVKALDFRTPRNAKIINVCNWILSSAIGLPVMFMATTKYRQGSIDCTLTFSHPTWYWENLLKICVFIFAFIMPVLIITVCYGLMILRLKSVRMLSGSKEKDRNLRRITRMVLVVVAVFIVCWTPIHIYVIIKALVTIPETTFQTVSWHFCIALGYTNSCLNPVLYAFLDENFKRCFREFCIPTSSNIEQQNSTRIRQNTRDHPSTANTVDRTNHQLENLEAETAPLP

A word on the inhibition: it is the drop in the measured response relative to a control, in per cent. On to `CCc1cnccc1C(=O)Nc1cc2c(cc1F)NC(=O)CC2` [MBE1, 3-ethyl-N-(7-fluoro-2-oxo-3,4-dihydro-1H-quinolin-6-yl)pyridine-4-carboxamide], for which the inhibition at 10 µM at op-mu is 3.98%; at Eta antagonist it was 4.57%; on 5HT2B it was -6.81%; at MAO-A, -8.05%; on 5HT1a, 3.78%; at 5HTT, -24.2%. The inhibition at 10 µM at V1A is 5.88%; at NET it was -19.9%; on ACHE, 5.81%; on CB1, -7.11%; at H1, -11.7%; at hNav1.5, -0.59%. Moreover, the inhibition at 10 µM was 5.54% at op-delta, -15.7% at ADORA2A, -13.4% on M3 and -6.51% at M2. The figures for the “Inhibition by MBE1 at 10 μM (%)” value in the data set on GABAA and in the data set with NMDA were −5.08% and −13.59%, respectively. In addition, in the data set with MDA-MB-468 cells, the “nonspecific cytotoxicity (in words)” value is “nontoxic”. Moreover, on ALDH1A3, the “thermal stabilization of ALDH1A3 in TPP (in words)” value was “stabilized”.

For the compound `CCc1ccccc1C(=O)Nc1cc2c(cc1F)NC(=O)CC2` [MBE1.5, 2-ethyl-N-(7-fluoro-2-oxo-3,4-dihydro-1H-quinolin-6-yl)benzamide], the “feedback effect on ALDH1A3 expression (in words)” value with ALDH1A3 mRNA is “no feedback effect”. For the same compound, the “inhibitory activity against ALDH1L1 (in words)” value at ALDH1L1 is on record as “no inhibition”. The “inhibitory activity against ALDH1L2 (in words)” value on ALDH1L2 is given as “no inhibition”. Moreover, the “inhibitory activity against ALDH3A1 (in words)” value on ALDH3A1 is given as “no inhibition”.
